Key:
[1] = Evaluation of the cuticular region of hair fibers by scanning electron microscopy (SEM); conditions: conditioner plus 1% active; bleached and dyed fibers; 1100x
Protocol: The tests to evaluate the effectiveness of the shine on locks of hair were carried out with standardized fibers of straight, dark brown hair, provided by International Hair Importers— USA.
The locks were washed with anti-residue shampoo and dried naturally (24±1h).
After the pre-treatment, the locks of hair from the groups G1, G2, G3 and G4 (average weight of 2 g per lock), were subjected to the process of chemical bleaching.
To carry out the process, a bleaching mixture was prepared with 15 g of bleaching powder and 30 g of hydrogen peroxide 30 volumes. This mixture was evenly applied to the locks of hair. After application, the locks were wrapped in aluminum foil and left to rest for 45 minutes. After the time of action of the bleaching mixture, the locks were washed and rinsed abundantly with running water (2 minutes) and received the application of a standard conditioner. After 2 minutes of rest, for the conditioner to work, the locks were rinsed again. The locks were dried with hot air from the dryer.
The whole process was repeated two more times, totaling three bleachings. […]
The evaluation of the surface of the hair fibers (cuticle region) was performed using a scanning electron microscope (SEM), model 6460 LV (JEOL). The study is based on capturing images (1100× magnification) of 10 capillary fibers randomly selected from the evaluated groups. […]

[2] = Shine evaluation of hair locks treated with conditioner (SAMBA Hair System, Reich-Robbins luster)
Protocol: The tests for evaluating the effectiveness in the shine of locks of hair were carried out with standardized fibers of CaucasianU, brown, straight hair, supplied by International Hair Importers— USA, model most used for these types of tests (Table 1).
The locks were washed with anti-residue shampoo and dried naturally (24±1h) before treatment.
The formulations were applied according to the protocol described below: For the locks in group G1 (Control), shampoo was applied in a standardized amount of SLES solution (8.1% active) on wet hair and gently massaged for 1 minute. Then rinsed for 1 minute.
For locks in group G2 (Placebo) and with the actives: G3 (Ricinoleamide), G4 (Cyclometicone), G5 (Phenyltrimethicone), G6 (Dimethicone), G7 (Aminopropyl phenyltrimethicone) and G8 (Propylene glycol dibenzoate) and G9 (Ricinoleate mono- and diesters), shampoo was applied in a standardized amount of placebo/standard shampoo to wet hair and gently massaged for 1 minute. Then rinsed for 1 minute. After rinsing the hair, the conditioner (3.0±0.2 g) was applied to the entire length of the hair, massaging and untangling the hair. Leaving the product to act for 2 minutes and it was rinsed for 1 minute. This protocol was repeated once, and then four more times, for all groups according to their specific treatment, described in Table 1.
The locks were kept in a controlled environment at 23±2° C. and 50±5% relative humidity (R. H.), for at least 24 hours before the tests were started. The entire test period was carried out under the same environmental conditions.
The evaluation of hair shine was performed on three locks per group, using the equipment SAMBA Hair System of the company Bossa Nova Technologies, USA.
The locks of hair were positioned on a cylindrical support that slides into the interior of the equipment, in order to carry out the measurements.
The equipment successively captures two parallel images of the locks of hair. Specular image and diffuse image. The specular image is formed only by the light reflected by the hair surfaces (first and second) of reflection. This image contains the brightness information. The diffused image (diffuse) is formed only by the scattered light coming from inside the hair.
The SAMBA system program calculates parameters associated with the reflection and refraction of light, the most used parameter is Luster, which evaluates the real state and quality of the brightness of the object under study. This parameter can be calculated simultaneously through different formulas, and for this study the analysis data obtained by the Reich-Robbins formula was used.
For the statistical evaluation of the tests, analysis of variance (ANOVA) was used. Tukey's test was applied when analysis of variance detected significant differences between the groups. For comparative tests between before and after the same sample, the t-Test (Student) was used.

Row | Compound | integrity of the cuticular region (subjective SEM evaluation) vs Control and Placebo [1] | difference of shine value greater than Amino pfenyltrimethicone group ([2]; conditioner with 1% active, one treatment, vs Amino pfenyltrimethicone (1%)) [%] | difference of shine value (after minus before one treatment) greater than Control group ([2]; conditioner with 1% active, one treatment, vs Control (SLES wash)) [%] | difference of shine value greater than Cyclomethicone group ([2]; conditioner with 1% active, one treatment, vs Cyclomethicone (1%)) [%] | difference of shine value greater than Dimethicone group ([2]; conditioner with 1% active, one treatment, vs Dimethicone (1%)) [%] | difference of shine value greater than Phenyltrimethicone group ([2]; conditioner with 1% active, one treatment, vs Phenyltrimethicone (1%)) [%] | difference of shine value greater than Placebo group ([2]; conditioner with 1% active, one treatment, vs Placebo conditioner) [%] | difference of shine value greater than Propilene glycol dibenzoate group ([2]; conditioner with 1% active, one treatment, vs Propilene glycol dibenzoate (1%)) [%] | difference of shine value greater than ricinoleate mono- and diesters group ([2]; conditioner with 1% active, one treatment, vs ricinoleate mono- and diesters (1%)) [%] | efficiency in providing increased shine in the first application compared to other compounds ([2]; same concentrations, FIG. 1)
1 | phenyltrimethicone [reference compound] | preservation of the cuticular region | – | – | – | – | – | – | – | – | –
2 | CCCCCC[C@@H](O)C/C=C\CCCCCCCC(N)=O [Ricinoleamide, ricinoleamide] | greater preservation of the cuticular region | 93.4 | 78.4 | 78.4 | 52.7 | 56.7 | 84 | 95.1 | 54.0 | greater efficiency

From patent publication US20230255869A1, “FATTY ACID DERIVATIVE, PRODUCTION PROCESS THEREFOR, HAIR COMPOSITION AND HAIR-TREATMENT METHOD” (CHEMYUNION LTDA., priority 2020, published 2023)
